Test results from patent US20250263436A1, “BROAD-SPECTRUM ANTIVIRAL DRUG FOR ENTEROVIRUS, AND APPLICATION” (WUHAN INSTITUTE OF VIROLOGY, CHINESE ACADEMY OF SCIENCES, priority 2020, published 2025).
“And” between values parts separate entries of the source, which are not always exact repeats. Equal values may be shown once.

How the values were obtained:
[1] = Cytotoxicity of polypeptides in Vero cells (CCK-8); assay type: cell-based
Experimental: (§1) Therefore, this standard was testified by cytotoxicity assay, and the cells without any treatment were used as a control group.
(§2) (1) Vero cells were plated in a 96-well plate at 100 μL per well.
(§3) (2) When the cells grew to a confluence of 70%-80%, the DMEM medium containing 10% serum was replaced with a DMEM medium containing 2% serum, and a certain concentration gradient of polypeptide RQ or LQ or SQ was added, so that the final concentrations of the polypeptide in the wells were 0.073242 μM, 0.146484 μM, 0.292969 μM, 0.585938 μM, 1.171875 μM, 2.34375 μM, 4.6875 μM, 9.375 μM, 18.75 μM, 37.5 μM, 75 μM and 150 μM, respectively.
(§4) (3) The samples were collected 24 h after the addition of the polypeptide, and then 10 μL of live cell detection reagent CCK-8 was added to each well and mixed well.
(§5) (4) The plate was placed at 37° C. for 2 h.
(§6) (5) The absorbance value at OD450 was detected by a microplate reader.
(§7) The CC50 of each polypeptide was calculated taking the cell viability of untreated cells as 100%.

Vero cells = experiment: Cytotoxicity of polypeptides in Vero cells (CCK-8); assay type: cell-based; conditions: Vero cells, 24 h
Experimental: as §1, §2, §3, §4, §5, §6, §7

EV71 [2] = experiment: Inhibition of EV71 in Vero cells (viral RNA, qRT-PCR); assay type: cell-based, enterovirus 71 (EV71); conditions: anti-EV71 in Vero cells
Experimental: (§8) (1) Different cells were plated in a 24-well plate.
(§9) (2) When the cells grew to a confluence of 70%-80%, the DMEM medium containing 10% serum was replaced with a DMEM medium containing 2% serum (the DMEM medium containing 2% serum was added in each well at an amount of 0.5 mL), and 5 μL of EV71 virus of 1×10^6 PFU/mL was added to each well.
(§10) (3) After 1 h, different polypeptides (RQ or control TAT) with final concentrations of 0.3125 μM, 0.625 μM, 1.25 μM, 2.5 μM, and 5 μM were added respectively. The group without polypeptide added was used as a control.
(§11) (4) The samples were collected 24 h after the infection of EV71 virus, and RNA was extracted with the total RNA extraction kit.
(§12) (5) The supernatant was discarded, then 350 μL of TRK lysate was added to each well, and the plate was put on a shaker for 5 min.
(§13) (6) 350 μL of 70% ethanol (DEPC) was added to each well, and then the plate was put on a shaker for 5 min.
(§14) (7) The solution in each well was transferred to a RNA extraction column for 1 min of centrifugation at 12000 g.
(§15) (8) The solution obtained in the recovery tube was reloaded on the column again for 1 min of centrifugation at 12000 g.
(§16) (9) RNA washing buffer 1 was added in the column for 30 s of centrifugation at 12000 g.
(§17) (10) RNA washing buffer 2 was added in the column for 1 min of centrifugation at 12000 g.
(§18) (11) Step (10) was repeated.
(§19) (12) The column alone was centrifuged at 12000 g for 2 min to completely remove the residual RNA washing buffer.
(§20) (13) 50 μL of DEPC water was added to the column for 2 min of centrifugation at 12000 g.
(§21) (14) 2 μL of RNA sample was subjected to a fluorescence quantitative experiment using the one step qRT-PCR kit.
(1) Vero E6 cells were plated in a 24-well plate.
(3) After 1 h, different polypeptides (LQ or SQ) with final concentrations of 0.3125 μM, 0.625 μM, 1.25 μM, 2.5 μM, and 5 μM were added respectively. The group without polypeptide added was used as a control.

EV71 [3] = experiment: Inhibition of EV71 in RD cells (viral RNA, qRT-PCR); assay type: cell-based, enterovirus 71 (EV71); conditions: EV71, 24 h after infection
Experimental: as §8, §9, §10, §11, §12, §13, §14, §15, §16, §17, §18, §19, §20, §21
(3) After 1 h, different polypeptides (RQ or control TAT) with final concentrations of 0.3125 μM, 0.625 μM, 1.25 μM, 2.5 μM and 5 μM were added respectively. The group without polypeptide added was used as a control.

CC[C@H](C)[C@H](NC(=O)[C@H](C)NC(=O)[C@H](CO)NC(=O)[C@H](CCCNC(=N)N)NC(=O)[C@H](CC(N)=O)NC(=O)[C@H](CC(N)=O)NC(=O)[C@H](Cc1ccc(O)cc1)NC(=O)[C@H](CCC(=O)O)NC(=O)[C@H](CCCNC(=N)N)NC(=O)[C@@H](NC(=O)[C@H](CC(C)C)NC(=O)[C@H](CCC(=O)O)NC(=O)[C@H](CO)NC(=O)CNC(=O)[C@H](CO)NC(=O)CNC(=O)[C@H](CCCNC(=N)N)NC(=O)[C@H](CCCNC(=N)N)NC(=O)[C@H](CCCNC(=N)N)NC(=O)[C@H](CCC(N)=O)NC(=O)[C@H](CCCNC(=N)N)NC(=O)[C@H](CCCNC(=N)N)NC(=O)[C@H](CCCCN)NC(=O)[C@H](CCCCN)NC(=O)[C@H](CCCNC(=N)N)NC(=O)CNC(=O)[C@@H](N)Cc1ccc(O)cc1)[C@@H](C)CC)C(=O)NCC(=O)N[C@@H](CC(N)=O)C(=O)N[C@H](C(=O)N[C@H](C(=O)N[C@@H](CCC(=O)O)C(=O)N[C@@H](C)C(=O)N[C@@H](CC(C)C)C(=O)N[C@@H](Cc1ccccc1)C(=O)N[C@@H](CCC(N)=O)C(=O)O)[C@@H](C)CC)[C@@H](C)O [SQ]
CC50 at 24 h ([1]; African green monkey, Table 1 (Vero cells)): 134 µM | viability at 24 h, 0.073242 µM ([1]; Vero cells, polypeptide 0.073242 μM, 24 h, read-out: Cell viability (%)): 104% | viability at 24 h, 0.146484 µM ([1]; Vero cells, polypeptide 0.146484 μM, 24 h, read-out: Cell viability (%)): 98% | viability at 24 h, 0.292969 µM ([1]; Vero cells, polypeptide 0.292969 μM, 24 h, read-out: Cell viability (%)): 101% | viability at 24 h, 0.585938 µM ([1]; Vero cells, polypeptide 0.585938 μM, 24 h, read-out: Cell viability (%)): 94.4% | viability at 24 h, 1.17188 µM ([1]; Vero cells, polypeptide 1.171875 μM, 24 h, read-out: Cell viability (%)): 90.1% | viability at 24 h, 2.34375 µM ([1]; Vero cells, polypeptide 2.34375 μM, 24 h, read-out: Cell viability (%)): 96.6% | viability at 24 h, 4.6875 µM ([1]; Vero cells, polypeptide 4.6875 μM, 24 h, read-out: Cell viability (%)): 105% | viability at 24 h, 9.375 µM ([1]; Vero cells, polypeptide 9.375 μM, 24 h, read-out: Cell viability (%)): 99.5% | viability at 24 h, 18.75 µM ([1]; Vero cells, polypeptide 18.75 μM, 24 h, read-out: Cell viability (%)): 106% | viability at 24 h, 150 µM ([1]; Vero cells, polypeptide 150 μM, 24 h, read-out: Cell viability (%)): 70% | Cell viability (%) (Vero cells; polypeptide 0.073242 μM): 103.4468% and 96.07% | Cell viability (%) (Vero cells; polypeptide 0.146484 μM): 94.606% and 92.7401% | Cell viability (%) (Vero cells; polypeptide 0.292969 μM): 103.1624% and 100.4524% | Cell viability (%) (Vero cells; polypeptide 0.585938 μM): 103.9959% and 100.6225% | Cell viability (%) (Vero cells; polypeptide 1.171875 μM): 94.07% and 98.81% | Cell viability (%) (Vero cells; polypeptide 2.34375 μM): 101.1325% and 99.03% | Cell viability (%) (Vero cells; polypeptide 4.6875 μM): 106.7734% and 95.3706% | Cell viability (%) (Vero cells; polypeptide 9.375 μM): 102.9859% and 103.7701% | Cell viability (%) (Vero cells; polypeptide 18.75 μM): 100.481% and 90.25% | Cell viability (%) (Vero cells; polypeptide 37.5 μM): 100.7644% and 90.65% and 80.6% | Cell viability (%) (Vero cells; polypeptide 75 μM): 90.36% and 95.75% and 70.31% | Cell viability (%) (Vero cells; polypeptide 150 μM): 80.35% and 60.9948% | IC50 (EV71 [2]): 10.3 µM

AC-qflaeitngiasrnnyergsgrrrqrrkkrgy-NH2 [RQ-DRI]
Percentage of viral RNA in RD cells (%) (EV71 [3]; polypeptide 0.3125 μM): 90.2% and 150.7832% and 85.04% | Percentage of viral RNA in RD cells (%) (EV71 [3]; polypeptide 0.625 μM): 113.2834% and 92.13% and 108.0728% | Percentage of viral RNA in RD cells (%) (EV71 [3]; polypeptide 1.25 μM): 93.12% and 79.48% and 58.29% | Percentage of viral RNA in RD cells (%) (EV71 [3]; polypeptide 2.5 μM): 24.4% and 38.77% and 23.45% | Percentage of viral RNA in RD cells (%) (EV71 [3]; polypeptide 5 μM): 21.2764% and 19.04% and 17.19%

MBP-CVA16 2C protein
helicase activity (unwinding of HEX-labeled dsRNA substrate, gel electrophoresis) (polypeptide RQ): RQ inhibited the helicase activity of CVA16 2C in a dose-dependent manner
